Test results taken from ChEMBL document CHEMBL1201862, “PubChem BioAssay data set” (2004).
Active and inactive are the calls of the source.

What was measured:
[1] = molecular target: T1, Polyadenylate-binding protein 1 (Homo sapiens, UniProt P11940); test: MLLE domain peptide-binding blockers, IC50 – biochemical, fluorescence polarization, FITC-PAM2 peptide, dose response (AID 602259); assay type: functional; conditions: read-out: IC50_Mean
[2] = molecular target: T1, Polyadenylate-binding protein 1; test: MLLE binding blockers, Cy5 peptide tracer – biochemical, fluorescence polarization, Cy5-PAM2 peptide, secondary, miRNA deadenylation inhibitor project, dose response (AID 602260); assay type: functional; conditions: read-out: IC50_Mean
[3] = molecular target: T2, Rac GTPase-activating protein 1 (Homo sapiens, UniProt Q9H0H5); test: blockers of MgcRacGAP-driven Rac1 GTP hydrolysis – biochemical, ADP Hunter fluorescence, primary and confirmatory, confirmation (AID 624330); assay type: functional
T2 sequence (Q9H0H5 whole entry): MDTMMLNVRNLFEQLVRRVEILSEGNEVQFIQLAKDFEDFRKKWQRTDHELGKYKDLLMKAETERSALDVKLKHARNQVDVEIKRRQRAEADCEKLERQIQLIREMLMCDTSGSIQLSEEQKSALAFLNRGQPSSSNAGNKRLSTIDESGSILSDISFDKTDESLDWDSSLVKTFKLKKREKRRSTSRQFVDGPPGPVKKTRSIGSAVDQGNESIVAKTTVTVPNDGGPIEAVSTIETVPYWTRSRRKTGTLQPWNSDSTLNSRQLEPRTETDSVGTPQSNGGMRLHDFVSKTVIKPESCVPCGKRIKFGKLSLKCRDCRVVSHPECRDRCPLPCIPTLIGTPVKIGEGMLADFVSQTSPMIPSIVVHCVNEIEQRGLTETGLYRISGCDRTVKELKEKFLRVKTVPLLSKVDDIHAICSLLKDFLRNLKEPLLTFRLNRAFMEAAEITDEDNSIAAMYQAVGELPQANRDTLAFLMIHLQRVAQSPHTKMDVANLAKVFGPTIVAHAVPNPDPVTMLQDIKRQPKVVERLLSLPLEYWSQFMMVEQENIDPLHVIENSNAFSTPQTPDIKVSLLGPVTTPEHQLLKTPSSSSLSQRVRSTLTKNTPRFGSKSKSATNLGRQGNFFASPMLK

SN12K1 = test: cells; assay type: functional; conditions: Homo sapiens
P388 = test: cells; assay type: functional; conditions: Mus musculus
P388/ADR = test: cells; assay type: functional; conditions: Mus musculus
[4] = molecular target: Glucose-6-phosphate 1-dehydrogenase (Homo sapiens, UniProt P11413); test: inhibition of Homo sapiens G6PD, dose series – biochemical, fluorescence, selectivity assay for P. falciparum G6PD inhibitor project, dose response (AID 504792); assay type: functional
Sequence of Glucose-6-phosphate 1-dehydrogenase (P11413 whole entry): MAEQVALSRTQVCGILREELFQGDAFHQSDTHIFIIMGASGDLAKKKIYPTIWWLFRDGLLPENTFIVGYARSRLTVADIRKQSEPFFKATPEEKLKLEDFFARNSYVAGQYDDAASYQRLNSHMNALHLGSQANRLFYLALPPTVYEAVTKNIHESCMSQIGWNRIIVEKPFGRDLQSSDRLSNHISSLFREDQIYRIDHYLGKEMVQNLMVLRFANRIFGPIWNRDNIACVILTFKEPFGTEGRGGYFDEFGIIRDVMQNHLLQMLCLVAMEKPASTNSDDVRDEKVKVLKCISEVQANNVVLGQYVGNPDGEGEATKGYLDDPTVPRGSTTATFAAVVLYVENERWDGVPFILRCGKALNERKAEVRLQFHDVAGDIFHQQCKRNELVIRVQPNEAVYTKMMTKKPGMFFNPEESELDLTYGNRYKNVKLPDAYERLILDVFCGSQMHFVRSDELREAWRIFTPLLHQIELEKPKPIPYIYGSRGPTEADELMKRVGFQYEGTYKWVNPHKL

[5] = molecular target: FAD-linked sulfhydryl oxidase ALR (Homo sapiens, UniProt P55789); test: ALR-catalysed DTT oxidation blockers – biochemical, H2O2 detection, luminescence, cherry-pick, dose response (AID 493248)
Sequence of FAD-linked sulfhydryl oxidase ALR (P55789 whole entry): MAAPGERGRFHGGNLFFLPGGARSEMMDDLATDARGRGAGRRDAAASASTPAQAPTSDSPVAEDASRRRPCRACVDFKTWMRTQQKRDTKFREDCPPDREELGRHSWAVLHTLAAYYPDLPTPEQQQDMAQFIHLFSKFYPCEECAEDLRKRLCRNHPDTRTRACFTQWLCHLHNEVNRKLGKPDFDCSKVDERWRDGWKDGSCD

[6] = microbe, parasite or virus in culture; assay type: functional; conditions: Mycobacterium tuberculosis
INS1 = test: INS-1E survival protection against cytokine death – cell-based, luminescence, retest, dose response (AID 449756); assay type: functional; conditions: Rattus norvegicus;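 note: cell death triggered by IL-1 beta plus TNF-alpha plus IFN-gamma mixture; protective hits raise ATP signal compared with cytokine alone wells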
H9c2 = test: cells; assay type: functional, cell-based; conditions: Rattus norvegicus, H9c2, Myocardium;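 note: confirmatory concentration-response retest of ultra-high-throughput screening hits for modulation of myocardial damage; cell death induced by hydrogen peroxide oxidative stress; compound pretreatment for 60 min then peroxide exposure for 2 h; potency is for protecting the cells against peroxide damage rather than for killing them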
Caspase-6 = molecular target: T3, Caspase-6 (Homo sapiens, UniProt P55212); test: inhibition of CASP6 peptide cleavage – biochemical, VEID-R110 fluorescence, cherry-pick, dose response (AID 720632)
T3 sequence (P55212 whole entry): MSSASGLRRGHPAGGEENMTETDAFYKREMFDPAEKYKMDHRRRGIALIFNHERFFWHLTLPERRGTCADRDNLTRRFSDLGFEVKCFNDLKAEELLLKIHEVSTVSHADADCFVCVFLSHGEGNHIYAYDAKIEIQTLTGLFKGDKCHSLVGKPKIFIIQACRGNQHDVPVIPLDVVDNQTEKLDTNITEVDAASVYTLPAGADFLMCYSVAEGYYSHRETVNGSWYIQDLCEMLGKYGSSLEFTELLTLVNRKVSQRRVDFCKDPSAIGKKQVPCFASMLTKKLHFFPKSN

[7] = Luminescence Cell-Based Dose Retest to Confirm Inhibitors of Cancer Stem Cells. [Related pubchem assays (depositor defined):AID2717, AID2721]; assay type: functional; conditions: Homo sapiens

T1 sequence (P11940 whole entry, the tested form may be a part): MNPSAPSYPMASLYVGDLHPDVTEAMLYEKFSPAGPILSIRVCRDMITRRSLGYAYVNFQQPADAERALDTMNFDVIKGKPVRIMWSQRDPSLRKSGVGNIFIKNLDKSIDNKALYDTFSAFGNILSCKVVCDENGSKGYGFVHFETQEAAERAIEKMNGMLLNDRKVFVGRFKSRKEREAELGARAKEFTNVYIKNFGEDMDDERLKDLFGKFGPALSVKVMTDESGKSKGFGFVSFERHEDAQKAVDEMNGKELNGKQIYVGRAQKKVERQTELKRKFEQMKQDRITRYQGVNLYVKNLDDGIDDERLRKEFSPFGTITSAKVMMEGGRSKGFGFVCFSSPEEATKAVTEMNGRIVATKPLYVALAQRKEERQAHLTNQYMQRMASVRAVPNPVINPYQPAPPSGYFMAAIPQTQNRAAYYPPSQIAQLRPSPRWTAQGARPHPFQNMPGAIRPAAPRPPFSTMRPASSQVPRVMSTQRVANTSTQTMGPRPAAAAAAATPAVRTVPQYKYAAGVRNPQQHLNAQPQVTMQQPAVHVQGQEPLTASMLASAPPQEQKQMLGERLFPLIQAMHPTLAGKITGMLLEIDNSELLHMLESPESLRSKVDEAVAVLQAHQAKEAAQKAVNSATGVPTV

Sc1ncc2cnccn12
IC50 [1]: > 66 µM (inactive)
IC50 [2]: > 66 µM (inactive)
IC50 [3]: 52.3 µM (active)

COc1cc(C[C@H]2c3cc(OC)c(OC)cc3CCN2C)c(Oc2cc3c(cc2OC)-c2c(OC)c(OC)cc4c2[C@H](C3)N(C)CC4)cc1OC [THALICARPINE]
GI50 (SN12K1): 7.93 µM (inactive)
GI50 (P388): 4.24 µM (inactive)
GI50 (P388/ADR): 8.51 µM (inactive)

[O-]/[N+](=C/c1cccnc1)c1ccc(Br)cc1
IC50 [4]: 28.2 µM (inactive)

O=NN(CCCl)C(=O)N[C@H]1CC[C@H](C(=O)O)CC1
GI50 (SN12K1): > 100 µM (inactive)
GI50 (P388): 4.86 µM (inactive)
GI50 (P388/ADR): 7.1 µM (inactive)

O=C(NC(=S)NC(CO)Cc1ccccc1)c1ccc(F)cc1 (configuration not stated)
IC50 [1]: > 66 µM (inactive)
IC50 [2]: > 66 µM (inactive)

O=C(NN/C=C1\C(=O)N(Cc2ccccc2)C(=O)c2ccccc21)c1cccnc1
AC50 [5]: 3.35 µM (active)

Clc1ccc(-c2[nH]ncc2N=Nc2ccccc2)cc1
CC50 [6]: > 40 µM (active)
AC50 (INS1): > 120 µM (inactive)

CC(=O)Nc1ccc(C(=O)CSc2ncn(-c3ccccc3)n2)cc1
IC50 [1]: > 66 µM (inactive)
IC50 [2]: > 66 µM (inactive)

CC1Nc2ncnc(N3CCN(c4ccccc4)CC3)c2N(Cc2ccc(Br)cc2)C1=O (configuration not stated)
CC50 [6]: > 40 µM (active)
IC50 (H9c2): > 79 µM (inactive)

O=C(CN1C(=O)C2C3C=CC(C3)C2C1=O)OCC(=O)c1ccc([N+](=O)[O-])cc1 (configuration not stated)
IC50 [4]: > 80 µM (inactive)

Cc1ccc(S(=O)(=O)SC/C=C/CSS(=O)(=O)c2ccc(C)cc2)cc1
IC50 [4]: 59.5 µM (inactive)

COc1cc(/C=N/Nc2ccc(Cl)nn2)cc(OC)c1O
AC50 [5]: 0.005 µM (active)

CCCCNc1nc(NCc2ccccc2)nc2ccccc12
AC50 (Caspase-6): 15.6 µM (active)

CCCOc1ccc2c(c1)C(=NN=C(N)N)c1cc(OCCC)ccc1-2
CC50 [6]: 12.2 µM (active)
AC50 [7]: 3.33 µM (active)

CSc1ncc(C(=O)Nc2ccc(Br)cn2)c(C)n1
CC50 [6]: > 40 µM (active)

C=C1C(=O)C[C@@]23CCC[C@@]12CC(OCOC)C3 (some centres not stated)
GI50 (SN12K1): 1.84 µM (inactive)
GI50 (P388): 0.431 µM (active)
GI50 (P388/ADR): 0.531 µM (active)

O=C(O)c1cccc(S(=O)(=O)Nc2ccc3c(c2)OCO3)c1
IC50 [1]: > 66 µM (inactive)
IC50 [2]: > 66 µM (inactive)

Cc1nc(-c2ccc(NC(=O)CC(C)C)cc2)cs1
AC50 [5]: 2.38 µM (active)
